{
  "source": "paper PMC11446596",
  "about": "(Critical Care Explorations, 2024)",
  "key": {"[1]": {"details": "critically ill children; cited from earlier work"}, "[2]": {"parameters": "species or system human", "details": "for Trough Vancomycin Concentration achieving AUC24/MIC = 400: regression equation"}, "[3]": {"details": "median / average of model-predicted half-life; PICU children"}, "[4]": {"details": "AUC24 regression equation, 365 troughs, 238 subjects"}},
  "note": "Read-outs that look alike come from different tables or passages of the source.",
  "data": [
    {"molecule": "CN[C@H](CC(C)C)C(=O)N[C@H]1C(=O)N[C@@H](CC(N)=O)C(=O)N[C@H]2C(=O)N[C@H]3C(=O)N[C@H](C(=O)N[C@H](C(=O)O)c4cc(O)cc(O)c4-c4cc3ccc4O)[C@H](O)c3ccc(c(Cl)c3)Oc3cc2cc(c3O[C@@H]2O[C@H](CO)[C@@H](O)[C@H](O)[C@H]2O[C@H]2C[C@](C)(N)[C@H](O)[C@H](C)O2)Oc2ccc(cc2Cl)[C@H]1O", "note": "[vancomycin]", "values": [
      {"measurement": "Vc reported by Downes et al", "setting": "[1]", "value": 2.59, "unit": "L"},
      {"measurement": "Vp reported by Downes et al", "setting": "[1]", "value": 5.74, "unit": "L"},
      {"measurement": "Trough Vancomycin Concentration achieving AUC24/MIC = 400", "setting": "[2]; 15 mg/kg q6h, body weight 10 kg, MIC = 0.5 μg/mL", "value": 1.8, "unit": "µg/mL"},
      {"measurement": "Trough Vancomycin Concentration achieving AUC24/MIC = 400", "setting": "[2]; 15 mg/kg q6h, body weight 10 kg, MIC = 1 μg/mL", "value": 7.4, "unit": "µg/mL"},
      {"measurement": "Trough Vancomycin Concentration achieving AUC24/MIC = 400", "setting": "[2]; 15 mg/kg q6h, body weight 10 kg, MIC = 2 μg/mL", "value": 29.9, "unit": "µg/mL"},
      {"measurement": "Trough Vancomycin Concentration achieving AUC24/MIC = 400", "setting": "[2]; 15 mg/kg q6h, body weight 20 kg, MIC = 0.5 μg/mL", "value": 1.7, "unit": "µg/mL"},
      {"measurement": "Trough Vancomycin Concentration achieving AUC24/MIC = 400", "setting": "[2]; 15 mg/kg q6h, body weight 20 kg, MIC = 1 μg/mL", "value": 6.9, "unit": "µg/mL"},
      {"measurement": "Trough Vancomycin Concentration achieving AUC24/MIC = 400", "setting": "[2]; 15 mg/kg q6h, body weight 20 kg, MIC = 2 μg/mL", "value": 28.0, "unit": "µg/mL"},
      {"measurement": "Trough Vancomycin Concentration achieving AUC24/MIC = 400", "setting": "[2]; 15 mg/kg q6h, body weight 40 kg, MIC = 0.5 μg/mL", "value": 1.5, "unit": "µg/mL"},
      {"measurement": "Trough Vancomycin Concentration achieving AUC24/MIC = 400", "setting": "[2]; 15 mg/kg q6h, body weight 40 kg, MIC = 1 μg/mL", "value": 6.1, "unit": "µg/mL"},
      {"measurement": "Trough Vancomycin Concentration achieving AUC24/MIC = 400", "setting": "[2]; 15 mg/kg q6h, body weight 40 kg, MIC = 2 μg/mL", "value": 24.6, "unit": "µg/mL"},
      {"measurement": "Trough Vancomycin Concentration achieving AUC24/MIC = 400", "setting": "[2]; 15 mg/kg q8h, body weight 10 kg, MIC = 0.5 μg/mL", "value": 2.5, "unit": "µg/mL"},
      {"measurement": "Trough Vancomycin Concentration achieving AUC24/MIC = 400", "setting": "[2]; 15 mg/kg q8h, body weight 10 kg, MIC = 1 μg/mL", "value": 10.0, "unit": "µg/mL"},
      {"measurement": "Trough Vancomycin Concentration achieving AUC24/MIC = 400", "setting": "[2]; 15 mg/kg q8h, body weight 10 kg, MIC = 2 μg/mL", "value": 40.7, "unit": "µg/mL"},
      {"measurement": "Trough Vancomycin Concentration achieving AUC24/MIC = 400", "setting": "[2]; 15 mg/kg q8h, body weight 20 kg, MIC = 0.5 μg/mL", "value": 2.3, "unit": "µg/mL"},
      {"measurement": "Trough Vancomycin Concentration achieving AUC24/MIC = 400", "setting": "[2]; 15 mg/kg q8h, body weight 20 kg, MIC = 1 μg/mL", "value": 9.3, "unit": "µg/mL"},
      {"measurement": "Trough Vancomycin Concentration achieving AUC24/MIC = 400", "setting": "[2]; 15 mg/kg q8h, body weight 20 kg, MIC = 2 μg/mL", "value": 37.6, "unit": "µg/mL"},
      {"measurement": "Trough Vancomycin Concentration achieving AUC24/MIC = 400", "setting": "[2]; 15 mg/kg q8h, body weight 40 kg, MIC = 0.5 μg/mL", "value": 2.0, "unit": "µg/mL"},
      {"measurement": "Trough Vancomycin Concentration achieving AUC24/MIC = 400", "setting": "[2]; 15 mg/kg q8h, body weight 40 kg, MIC = 1 μg/mL", "value": 8.0, "unit": "µg/mL"},
      {"measurement": "Trough Vancomycin Concentration achieving AUC24/MIC = 400", "setting": "[2]; 15 mg/kg q8h, body weight 40 kg, MIC = 2 μg/mL", "value": 32.4, "unit": "µg/mL"},
      {"measurement": "Trough Vancomycin Concentration achieving AUC24/MIC = 400", "setting": "[2]; 20 mg/kg q6h, body weight 10 kg, MIC = 0.5 μg/mL", "value": 1.8, "unit": "µg/mL"},
      {"measurement": "Trough Vancomycin Concentration achieving AUC24/MIC = 400", "setting": "[2]; 20 mg/kg q6h, body weight 10 kg, MIC = 1 μg/mL", "value": 7.2, "unit": "µg/mL"},
      {"measurement": "Trough Vancomycin Concentration achieving AUC24/MIC = 400", "setting": "[2]; 20 mg/kg q6h, body weight 10 kg, MIC = 2 μg/mL", "value": 29.3, "unit": "µg/mL"},
      {"measurement": "Trough Vancomycin Concentration achieving AUC24/MIC = 400", "setting": "[2]; 20 mg/kg q6h, body weight 20 kg, MIC = 0.5 μg/mL", "value": 1.6, "unit": "µg/mL"},
      {"measurement": "Trough Vancomycin Concentration achieving AUC24/MIC = 400", "setting": "[2]; 20 mg/kg q6h, body weight 20 kg, MIC = 1 μg/mL", "value": 6.6, "unit": "µg/mL"},
      {"measurement": "Trough Vancomycin Concentration achieving AUC24/MIC = 400", "setting": "[2]; 20 mg/kg q6h, body weight 20 kg, MIC = 2 μg/mL", "value": 26.8, "unit": "µg/mL"},
      {"measurement": "Trough Vancomycin Concentration achieving AUC24/MIC = 400", "setting": "[2]; 20 mg/kg q6h, body weight 40 kg, MIC = 0.5 μg/mL", "value": 1.4, "unit": "µg/mL"},
      {"measurement": "Trough Vancomycin Concentration achieving AUC24/MIC = 400", "setting": "[2]; 20 mg/kg q6h, body weight 40 kg, MIC = 1 μg/mL", "value": 5.6, "unit": "µg/mL"},
      {"measurement": "Trough Vancomycin Concentration achieving AUC24/MIC = 400", "setting": "[2]; 20 mg/kg q6h, body weight 40 kg, MIC = 2 μg/mL", "value": 22.6, "unit": "µg/mL"},
      {"measurement": "Trough Vancomycin Concentration achieving AUC24/MIC = 400", "setting": "[2]; 30 mg/kg q8h, body weight 10 kg, MIC = 0.5 μg/mL", "value": 2.3, "unit": "µg/mL"},
      {"measurement": "Trough Vancomycin Concentration achieving AUC24/MIC = 400", "setting": "[2]; 30 mg/kg q8h, body weight 10 kg, MIC = 1 μg/mL", "value": 9.3, "unit": "µg/mL"},
      {"measurement": "Trough Vancomycin Concentration achieving AUC24/MIC = 400", "setting": "[2]; 30 mg/kg q8h, body weight 10 kg, MIC = 2 μg/mL", "value": 37.6, "unit": "µg/mL"},
      {"measurement": "Trough Vancomycin Concentration achieving AUC24/MIC = 400", "setting": "[2]; 30 mg/kg q8h, body weight 20 kg, MIC = 0.5 μg/mL", "value": 2.0, "unit": "µg/mL"},
      {"measurement": "Trough Vancomycin Concentration achieving AUC24/MIC = 400", "setting": "[2]; 30 mg/kg q8h, body weight 20 kg, MIC = 1 μg/mL", "value": 8.0, "unit": "µg/mL"},
      {"measurement": "Trough Vancomycin Concentration achieving AUC24/MIC = 400", "setting": "[2]; 30 mg/kg q8h, body weight 20 kg, MIC = 2 μg/mL", "value": 32.4, "unit": "µg/mL"},
      {"measurement": "Trough Vancomycin Concentration achieving AUC24/MIC = 400", "setting": "[2]; 30 mg/kg q8h, body weight 40 kg, MIC = 0.5 μg/mL", "value": 1.5, "unit": "µg/mL"},
      {"measurement": "Trough Vancomycin Concentration achieving AUC24/MIC = 400", "setting": "[2]; 30 mg/kg q8h, body weight 40 kg, MIC = 1 μg/mL", "value": 6.1, "unit": "µg/mL"},
      {"measurement": "Trough Vancomycin Concentration achieving AUC24/MIC = 400", "setting": "[2]; 30 mg/kg q8h, body weight 40 kg, MIC = 2 μg/mL", "value": 24.7, "unit": "µg/mL"},
      {"measurement": "Exponent of trough concentration", "setting": "[2]; AUC24 regression equation, (Ctr/7)^x, 365 troughs, 238 subjects", "value": 0.495},
      {"measurement": "Additive shift for dose frequency < 8 hours", "setting": "[2]; [4]", "value": 54.9},
      {"measurement": "Slope of (DOSE [mg] - 500)", "setting": "[2]; [4]", "value": 0.0894},
      {"measurement": "half-life (model-predicted, terminal)", "setting": "[3]", "value": 6, "unit": "h"}
    ]}
  ]
}
